Entries after “also recorded” stand apart in the source; their conditions may differ.
Key:
[1] = test system: mechanical nociceptive threshold; conditions: epinephrine 100 ng, 3.82 and 4.54 N/mm^2
[2] = test system: mechanical nociceptive threshold; assay: Epinephrine-induced mechanical hyperalgesia, Randall-Selitto paw-withdrawal test (Example 1); conditions: rat, in vivo
Source text: (§1) The nociceptive flexion reflex (Randall-Selitto paw-withdrawal test) was quantified with a Basile Analge-symeter (Stoelting, Chicago, Ill.), which applies a linearly increasing mechanical force to the dorsum of the rat's hindpaw. The mechanical nociceptive threshold was defined as the force in grams at which the rat withdrew its paw. […] They were allowed to crawl into individual cylindrical Perspex blocks and were lightly restrained there by closing both ends of the cylinder. […] The rats were allowed to acclimatize to the restrainer for 5-10 min, after which the hindpaws were exposed to the test stimulus. Three readings were taken at 5 min intervals, and their mean was considered the baseline threshold. After each drug administration, mechanical paw-withdrawal thresholds were determined again as the mean of three readings taken 20, 25, and 30 min after injection.
Inhibitors were diluted with distilled water before intra-dermal injections into the paw using a 10 μl microsyringe (Hamilton, Reno, Nev.). Injections of peptides (1 μg/2.5 μl) were always preceded by injection of distilled water (2.5 μl) to produce hypo-osmotic shock. […] Paw-withdrawal thresholds were measured again 10, 15, and 20 min after injecting the test agent. The mean of the paw-withdrawal thresholds obtained at these three times was then taken as the mechanical nociceptive threshold at the dose of the test agent used. The effect of each dose a test agent was calculated as the percentage change from baseline.

[3] = test system: mechanical nociceptive threshold; assay: Epinephrine-induced hyperalgesia in gonad-intact and gonadectomized male and female rats (Example 2); conditions: for absolute decrease in threshold after epinephrine: n=18; for effect on epinephrine-induced hyperalgesia: inhibitor 1 μg, epinephrine 100 ng intradermal
Protocol: The nociceptive flexion reflex was quantified using the Randall-Selitto paw pressure device (Analgesymeter, Stoetling, Chicago, Ill., USA), which applies a linearly increasing mechanical force to the dorsum of the rat's hind paw. The mechanical nociceptive threshold was defined as the force in grams at which the rat withdrew its paw. […] Baseline paw-withdrawal threshold was defined as the mean of six readings before test agents were injected. […] Each group of rats was treated with only one agonist and/or antagonist injected peripherally by the intradermal route. […] All behavioural testing was done between 10.00 and 16.00 h. […] The protein kinase inhibitor was separated from the distilled water by drawing up a small air bubble (<1 μL) into the syringe after drawing up the protein kinase inhibitor but before drawing up the distilled water.
A stock solution of PGE2 (4 mg/mL) was made by dissolving it in 10% ethanol in normal saline; further dilution to 100 ng was made by addition of saline. Final concentration of ethanol was <10%. […] Stock solutions (1 μg/μL) of inhibitors were stored at −20° C. […] Inhibitors were injected at a concentration of 1 μg/2.5 μL.

ERK1/2 = assay: Epinephrine-stimulated ERK1/2 phosphorylation in cultured rat DRG neurons (Western analysis); type: cell-based
Protocol: Trypsin was inactivated by adding 100 μg/ml soybean trypsin inhibitor and 2.5 mg/ml MgSO4. The cells were centrifuged at 300×g for 5 min and resuspended culture media containing minimal essential medium (MEM) supplemented with 10% heat-inactivated fetal calf serum, 1×MEM vitamins, and 1000 U/ml each of penicillin and streptomycin. The culture was enriched for neurons by preplating on 100 mm culture dishes pretreated with 0.1 mg/ml poly-DL-ornithine in 15 mM sodium borate buffer. After culture for 15-20 hr, the loosely attached neuronal cells were collected and plated for 3 hr on six-well plates coated with 0.1 mg/ml poly-DL-ornithine and 1 mg/ml laminin.
After drug treatment, cells from neuron-enriched DRG cultures were collected and centrifuged at 300×g for 5 min at 4° C. […] Blots were incubated with anti-phospho-p42/44 MAP kinase antibody (diluted 1:500 in blocking buffer) overnight at 4° C. Blots were rinsed three times in PBS-T and incubated in blocking buffer containing HRP-conjugated goat anti-rabbit IgG (diluted 1:1000; Boehringer Mannheim, Indianapolis, Ind.) for 1 hr at 27° C. Immunoreactive bands were visualized by enhanced chemiluminescence (Amersham Pharmacia Biotech, Piscataway, N.J.). The membranes were then stripped of antibodies by incubation in 200 mM NaOH for 20 min at 27° C. […] After three washes in PBS-T, blots were incubated with HRP-conjugated goat anti-rabbit IgG (diluted 1:1000; Boehringer Mannheim) for 1 hr at 27° C., and immunoreactive bands were visualized by enhanced chemiluminescence and autoradiography. […] Data were normalized by dividing values obtained for phospho-ERK1 and phospho-ERK2 immunoreactivity by the value obtained for total ERK1 immunoreactivity for each sample.

[4] = test system: mechanical nociceptive threshold; conditions: dose-response studies (Khasar et al., 1999b); cited from earlier work
[5] = test system: mechanical nociceptive threshold; conditions: injected intradermally (Khasar et al., 1999b); cited from earlier work
[6] = test system: mechanical nociceptive threshold; assay: Prostaglandin E2-induced hyperalgesia in male and female rats (Example 2); type: in vivo, rat; conditions: both sexes, gonad-intact; inhibitor 1 μg, PGE2 100 ng intradermal
Source text: The nociceptive flexion reflex was quantified using the Randall-Selitto paw pressure device (Analgesymeter, Stoetling, Chicago, Ill., USA), which applies a linearly increasing mechanical force to the dorsum of the rat's hind paw. The mechanical nociceptive threshold was defined as the force in grams at which the rat withdrew its paw. The protocols for this procedure have been previously described (Taiwo et al., (1989) The contribution of training to sensitivity in the nociceptive paw-withdrawal test. Brain Res., 487:148-151). Rats were familiarized in the testing procedure, at 5-min intervals for a period of 1 h per day for 3 days in the week preceding the experiment, to decrease variance in nociceptive thresholds (Taiwo et al., (1989), supra). Baseline paw-withdrawal threshold was defined as the mean of six readings before test agents were injected. Each paw was treated as an independent measure (Taiwo et al., (1989), supra) and each experiment was performed on a separate group of rats. Each group of rats was treated with only one agonist and/or antagonist injected peripherally by the intradermal route. It has been shown in previous studies that these agents, which are injected using the protocol described, exert a peripheral rather than central action (Khasar et al., (1995), supra; and, Khasar et al., (1999b), supra). The dose-response relationship for the effect of epinephrine was determined over a dose range of 1 ng-1 μg. All behavioural testing was done between 10.00 and 16.00 h. The blocking agents, with and without epinephrine (Khasar et al., (1999b), supra) or prostaglandin E2 (PGE2) (Aley et al., (1998), supra; Aley & Levine, (1999), supra; and, Aley et al., (2000) Chronic hypersensitivity for inflammatory nociceptor sensitization mediated by the epsilon isozyme of protein kinase C. J. Neurosci., 20:4680-4685), were injected as described previously (Khasar et al., (1995), supra; and, Khasar et al., (1999b), supra). […]

[7] = test system: mechanical nociceptive threshold; assay: Active MEK-induced hyperalgesia, Randall-Selitto paw-withdrawal test; conditions: intradermal, inhibitor 1 μg plus active MEK 0.5 U, male rats
Source text: as §1
Inhibitors were diluted with distilled water before intra-dermal injections into the paw using a 10 μl microsyringe (Hamilton, Reno, Nev.). Injections of peptides (1 μg/2.5 μl) were always preceded by injection of distilled water (2.5 μl) to produce hypo-osmotic shock. […] Paw-withdrawal thresholds were measured again 10, 15, and 20 min after injecting the test agent. […] The effect of each dose a test agent was calculated as the percentage change from baseline.

For CNC[C@H](O)c1ccc(O)c(O)c1 [epinephrine], the “response to VFH stimulation, wild-type vs PKCε mutant” value ([1]; female mice) was “similar”, the “epinephrine-induced change in nociceptive response in PKCε-null vs wild-type” value ([1]; male mice) was “significantly less” and the “decrease in mechanical nociceptive thresholds” value [2] was ~35%. The “change in mechanical nociceptive threshold over dose range” value ([3]; epinephrine 1-1000 ng intradermal, normal male and female rats) was “dose-dependent decrease”, the “decrease in threshold after epinephrine, gonadectomized vs gonad-intact” value ([3]; female rats, epinephrine 100 ng) was “greater” and the “absolute decrease in threshold after epinephrine” value ([3]; female rats) was 72.7 ± 0.9 g. The “decrease in paw-withdrawal threshold produced by epinephrine, gonadectomized vs gonad-intact” value ([3]; male rats, epinephrine 100 ng) was “no significant difference”, the “absolute decrease in threshold after epinephrine” value ([3]; male rats) was 63.7 ± 0.9 g and the “ERK1/2 phosphorylation (representative Western blot)” value (ERK1/2) was “stimulation”. The “concentration at which effect on ERK phosphorylation appeared maximal” value (ERK1/2) was 1 µM, the “increase of phospho-ERK immunoreactivity over basal level” value (ERK1/2) was ~1.7 fold and the “time after which ERK phosphorylation returned to basal levels” value (ERK1/2) was 60 min. For the same compound, the “time at which epinephrine-evoked ERK phosphorylation was greatest” value (ERK1/2) was 5 min, the Emax (ERK1/2; Rattus norvegicus, DRG neuron, 5 min, read-out: maximal response relative to response to NGF) was 30 to 50% and the “dose producing maximal hyperalgesia” value [4] was 100 ng. For the same compound, the “ED50 for lowering the nociceptive threshold” value [5] was ~20 ng.

For WIPTIDE, the “effect on prostaglandin E2-induced hyperalgesia” value [6] was “significantly blocked; also recorded: inhibited to a similar degree”, the “effect on hyperalgesia induced by active MEK” value [7] was “did not reduce” and the “effect on epinephrine-induced hyperalgesia” value ([3]; gonadectomized female rats) was “inhibition”. The “effect on epinephrine-induced hyperalgesia” value ([3]; intact female rats) was “neither inhibited” and the “effect on epinephrine-induced hyperalgesia” value ([3]; intact male rats) was “antagonized”.

From patent publication US20030008807A1, “Novel signaling pathway for the production of inflammatory pain and neuropathy” (The Regents of the University of California, priority 2001, published 2003)
